Reference: publication PMC11876671, “Investigating blood–brain barrier penetration and neurotoxicity of natural products for central nervous system drug development” (Scientific Reports, 2025)
Counter-ions that a name gives are not always drawn.

assay: in vitro; conditions: PAMPA, PAMPA-BBB Pe(10^-6 cm/sec)

| SMILES | Papp |
| --- | --- |
| C[C@]12C=CC(=O)C=C1[C@@H](F)C[C@@H]1[C@@H]2[C@@H](O)C[C@@]2(C)[C@H]1CC[C@]2(O)C(=O)CO [FLUPREDNISOLONE] | 1.9 ×10⁻⁶ cm/s |
| CC(=O)OCC(=O)[C@@]1(O)CC[C@H]2[C@@H]3CCC4=CC(=O)CC[C@]4(C)[C@H]3[C@@H](O)C[C@@]21C [HYDROCORTISONE ACETATE] | < 1 ×10⁻⁶ cm/s |
| Oc1ccc(O)cc1 [HYDROQUINONE] | < 1 ×10⁻⁶ cm/s |
| Nc1nc(=O)[nH]c2c1ncn2[C@@H]1O[C@H](CO)[C@@H](O)[C@H]1O [ISOGUANOSINE] | < 1 ×10⁻⁶ cm/s |
| CC1=C(/C=C/C(C)=C/C=C/C(C)=C\C(=O)O)C(C)(C)CCC1 [ISOTRETINOIN] | 8.7 ×10⁻⁶ cm/s |
| Oc1cc(O)c2c(c1)O[C@H](c1ccc(O)c(O)c1)[C@H](O)C2 [L-EPICATECHIN] | < 1 ×10⁻⁶ cm/s |

same assay, conditions: PAMPA, PAMPA-BBB Pe(10^-6 cm/sec), Table S3: compounds exhibiting low PAMPA-BBB permeability

| SMILES | Papp |
| --- | --- |
| C[C@H]([C@H](O)CCC(C)(C)O)[C@H]1CC[C@@]2(O)C3=CC(=O)[C@@H]4C[C@@H](O)[C@@H](O)C[C@]4(C)[C@H]3CC[C@]12C [ECDYSONE] | < 1 ×10⁻⁶ cm/s |
| O=C(O[C@@H]1Cc2c(O)cc(O)cc2O[C@@H]1c1ccc(O)c(O)c1)c1cc(O)c(O)c(O)c1 [EPICATECHIN GALLATE] | < 1 ×10⁻⁶ cm/s |
| C=C1CC[C@H](O)C/C1=C/C=C1\CCC[C@]2(C)[C@@H]([C@H](C)/C=C/[C@H](C)C(C)C)CC[C@@H]12 [ERGOCALCIFEROL] | < 1 ×10⁻⁶ cm/s |
| C[C@]12CC[C@@H]3c4ccc(O)cc4CC[C@H]3[C@@H]1C[C@@H](O)[C@@H]2O [ESTRIOL] | < 1 ×10⁻⁶ cm/s |
| CCCCC/C=C\C=C\C(=O)OCC [ETHYL TRANS-2,CIS-4-DECADIENOATE] | < 1 ×10⁻⁶ cm/s |
| Clc1ccc([C@@H]2C[C@H]3CC[C@@H]2N3)cn1 [Epibatidine dihydrochloride] | 5.9 ×10⁻⁶ cm/s |
| CC(C)=CCC/C(C)=C/CC/C(C)=C/CO [FARNESOL TRANS,TRANS-FARNESOL] | < 1 ×10⁻⁶ cm/s |
| O=C(C[C@H]1NCCC[C@@H]1O)Cn1cnc2ccccc2c1=O [FEBRIFUGINE] | < 1 ×10⁻⁶ cm/s |
| COc1cc(/C=C/C(=O)O)ccc1O [FERULIC ACID] | 1.2 ×10⁻⁶ cm/s |
| CCC(=O)c1c(O)cc(O)cc1O [FLOPROPIONE] | 2.8 ×10⁻⁶ cm/s |
| Cc1cc(O)c(C=O)c2c1C(=O)Oc1c(COC(=O)/C=C/C(=O)O)c(O)c(C(=O)O)c(C)c1O2 [FUMARPRO[…]] | < 1 ×10⁻⁶ cm/s |
| CCCCc1ccc(C(=O)O)nc1 [FUSARIC ACID] | < 1 ×10⁻⁶ cm/s |
| O=C(O)c1cc(O)c(O)c(O)c1 [GALLIC ACID] | < 1 ×10⁻⁶ cm/s |
| O=C(O[C@@H]1Cc2c(O)cc(O)cc2O[C@H]1c1cc(O)c(O)c(O)c1)c1cc(O)c(O)c(O)c1 [GALLOCATECHIN GALLATE, (-)-] | < 1 ×10⁻⁶ cm/s |
| Oc1cc(O)c2c(c1)O[C@H](c1cc(O)c(O)c(O)c1)[C@@H](O)C2 [GALLOCATECHIN] | < 1 ×10⁻⁶ cm/s |
| CC(=O)O[C@@H]1C[C@H]2C(C)(C)C(=O)C=C[C@]2(C)[C@H]2CC[C@@]3(C)[C@H](c4ccoc4)OC(=O)[C@H]4O[C@]43[C@@]21C [GEDUNIN] | < 1 ×10⁻⁶ cm/s |
| COC1=C2C[C@@H](C)C[C@H](OC)[C@H](O)[C@@H](C)/C=C(\C)[C@H](OC(N)=O)[C@@H](OC)/C=C\C=C(/C)C(=O)NC(=CC1=O)C2=O [GELDANAMYCIN] | < 1 ×10⁻⁶ cm/s |
| COC(=O)C1=CO[C@@H](O)[C@@H]2C(CO)=CC[C@H]12 [GENIPIN] | < 1 ×10⁻⁶ cm/s |
| Nc1nc2c(ncn2[C@@H]2O[C@H](COP(=O)(O)OP(=O)(O)O)[C@@H](O)[C@H]2O)c(=O)[nH]1 [Guanosine pyrophosphate] | < 1 ×10⁻⁶ cm/s |
| C[C@]1(OC(=O)/C=C/c2ccccc2)C[C@@H](O)[C@]2(O)C=CO[C@@H](O[C@@H]3O[C@H](CO)[C@@H](O)[C@H](O)[C@H]3O)[C@@H]21 [HARPAGOSIDE] | < 1 ×10⁻⁶ cm/s |
| COC(=O)C[C@](O)(CCC(C)(C)O)C(=O)O[C@@H]1C(OC)=C[C@]23CCCN2CCc2cc4c(cc2[C@H]13)OCO4 [HARRINGTONINE] | < 1 ×10⁻⁶ cm/s |
| C[C@@H]1CC[C@@]2(OC1)O[C@H]1C[C@H]3[C@@H]4CC[C@H]5C[C@@H](O)CC[C@]5(C)[C@H]4CC(=O)[C@]3(C)[C@H]1[C@@H]2C [HECOGENIN] | < 1 ×10⁻⁶ cm/s |
| Cc1ncsc1CCO [HEMINEURINE] | < 1 ×10⁻⁶ cm/s |
| COc1ccc2cc1Oc1ccc(cc1)C[C@H]1c3cc(c(OC)cc3CCN1C)Oc1c(OC)c(OC)c(OC)c3c1[C@H](C2)N(C)CC3 [HERNANDEZINE] | 9.7 ×10⁻⁶ cm/s |

| SMILES | Papp |
| --- | --- |
| O=c1cc(O)cc(/C=C/c2ccc(O)c(O)c2)o1 [HISPIDIN] | < 1 ×10⁻⁶ cm/s |
| C/C=C1\[C@H]2C=C(C)C[C@]1(N)c1ccc(=O)[nH]c1C2 [HUPERZINE A] | 8.1 ×10⁻⁶ cm/s |
| O=C(O)Cc1c[nH]c2ccc(O)cc12 [HYDROXYIN[…]] | < 1 ×10⁻⁶ cm/s |
| Cc1cccc(C(=O)O)c1O [HYDROXYTOLUIC ACID] | < 1 ×10⁻⁶ cm/s |
| Cc1cc(=O)oc2cc(O)ccc12 [HYMECROMONE] | 9.9 ×10⁻⁶ cm/s |
| Cc1cc(O)c2c(=O)c3c(O)cc(O)c4c5c(O)cc(O)c6c(=O)c7c(O)cc(C)c8c1c2c(c34)c(c78)c65 [HYPERICIN] | 6.4 ×10⁻⁶ cm/s |
| O=c1c(O[C@@H]2O[C@H](CO)[C@H](O)[C@H](O)[C@H]2O)c(-c2ccc(O)c(O)c2)oc2cc(O)cc(O)c12 [HYPEROSIDE] | 1.6 ×10⁻⁶ cm/s |
| CSCCCN=C=S [IBERVERIN] | 9.7 ×10⁻⁶ cm/s |
| CC/C=C\C/C=C\C/C=C\C/C=C\C/C=C\CCCC(=O)OCC [ICOSAPENT ETHYL] | < 1 ×10⁻⁶ cm/s |
| O=C(O)CCCc1c[nH]c2ccccc12 [IND[…]] | < 1 ×10⁻⁶ cm/s |
| COc1cc(-c2coc3cc(O[C@@H]4O[C@H](CO)[C@@H](O)[C@H](O)[C@H]4O)c(OC)c(O)c3c2=O)cc(O)c1OC [IRIDIN] | 1.3 ×10⁻⁶ cm/s |
| COC(=O)/C=C/C(C)=C/C=C/C(C)=C/C=C/C=C(C)/C=C/C=C(C)/C=C/C(=O)O [ISOBIXIN] | 4.2 ×10⁻⁶ cm/s |
| CC/C=C\CC1=C(C)CCC1=O [JASMONE] | < 1 ×10⁻⁶ cm/s |
| O=C1C=CC(=O)c2c(O)cccc21 [JUGLONE] | 4.1 ×10⁻⁶ cm/s |
| C[C@@]12C=Cc3occc3[C@H]1CC[C@@]13C[C@@H](CC[C@H]12)[C@@](O)(CO)C3 [KAHWEOL] | < 1 ×10⁻⁶ cm/s |
| C[C@H]1O[C@H](O[C@H]2[C@H](O)[C@@H](O)[C@@H](O)[C@H](O)[C@@H]2O)[C@@H](N)C[C@@H]1NC(=N)C(=O)O [KASUGAMYCIN HYDROCHLORIDE] | < 1 ×10⁻⁶ cm/s |
| C[C@@H]1CC[C@]2(C)CC[C@]3(C)C(=CC(=O)C4[C@@]5(C)CC[C@@H](O)[C@](C)(C(=O)O)C5CC[C@]43C)C2[C@H]1C (stereo partly drawn) [KETO-B-BOSWELLIC ACID] | < 1 ×10⁻⁶ cm/s |
| c1coc(CNc2ncnc3[nH]cnc23)c1 [KINETIN] | 4 ×10⁻⁶ cm/s |
| NCCC(=O)c1ccccc1N [KYNURAMINE] | 2.4 ×10⁻⁶ cm/s |
| O=c1cc(-c2ccc(O)cc2)oc2cc(O)ccc12 [K[…]] | 2.9 ×10⁻⁶ cm/s |
| N[C@@H](Cc1cc(I)c(O)c(I)c1)C(=O)O [L-DIIODOTYROSINE] | < 1 ×10⁻⁶ cm/s |
| COc1cc2c(cc1O)C[C@@H]1NCCc3cc(OC)c(OC)c-2c31 [LAUROTETANINE] | < 1 ×10⁻⁶ cm/s |
| Cc1cc(OC(=O)c2c(C)cc(O)cc2O)cc(O)c1C(=O)O [LECANORIC ACID] | < 1 ×10⁻⁶ cm/s |

same assay, conditions: PAMPA, PAMPA-BBB Pe, Table S2: compounds exhibiting moderate to high PAMPA-BBB permeability

| SMILES | Papp |
| --- | --- |
| CN1CC(CO)=C[C@H]2c3cccc4[nH]cc(c34)C[C@H]21 [ELYMOCLAVINE] | 17 ×10⁻⁶ cm/s |
| CCOC(=O)/C=C/c1ccccc1 [ETHYL CINNAMATE] | 110 ×10⁻⁶ cm/s |
| CCOC(=O)c1ccc(O)cc1 [ETHYL HYDROXYBENZOATE] | 43 ×10⁻⁶ cm/s |
| CCOC(=O)c1c(C)cc(O)cc1O [ETHYL ORSELLINATE] | 137 ×10⁻⁶ cm/s |
| C=CCc1ccc(O)c(OC)c1 [EUGENOL] | 116 ×10⁻⁶ cm/s |
| C=C(C)c1cc2cc(C(C)=O)c(O)cc2o1 [EUPARIN] | 125 ×10⁻⁶ cm/s |
| COc1ccc(-c2cc(=O)c3c(O)c(OC)c(OC)cc3o2)cc1O [EUPATORIN] | 281 ×10⁻⁶ cm/s |
| O=c1c(O)c(-c2ccccc2)oc2ccccc12 [FLAVONOL] | 181 ×10⁻⁶ cm/s |
| COc1ccc(-c2coc3cc(O)ccc3c2=O)cc1 [FORMONONETIN] | 97 ×10⁻⁶ cm/s |
| O=Cc1ccco1 [FURFURAL] | 46 ×10⁻⁶ cm/s |
| COc1cc(OC)c(OC)cc1C=O [GAZARIN] | 64 ×10⁻⁶ cm/s |
| C=C[C@]12CN(C)[C@@H]3[C@H]4CO[C@H](C[C@H]41)[C@]1(C(=O)Nc4ccccc41)[C@@H]32 [GELSEMINE] | 13 ×10⁻⁶ cm/s |
| O=c1c(-c2ccc(O)cc2)coc2cc(O[C@@H]3O[C@H](CO)[C@@H](O)[C@H](O)[C@H]3O)cc(O)c12 [GENISTIN] | 29 ×10⁻⁶ cm/s |
| COc1cc(-c2oc3cc(O)ccc3c(=O)c2O)ccc1O [GERALDOL] | 124 ×10⁻⁶ cm/s |
| CCCCC[C@H](O)CC(=O)CCc1ccc(O)c(OC)c1 [GINGEROL] | 69 ×10⁻⁶ cm/s |
| CC1(C)O[C@@H]1COc1c2occc2cc2ccc(=O)oc12 [HERACLENIN] | 210 ×10⁻⁶ cm/s |

| SMILES | Papp |
| --- | --- |
| C=C[C@H]1CN2CCc3c([nH]c4ccccc34)[C@H]2C[C@@H]1/C(=C\OC)C(=O)OC [HIRSUTEINE] | 118 ×10⁻⁶ cm/s |
| COc1c2c(cc3c1OCO3)CCN(C)C2 [HYDROCOTARNINE HYDROBROMIDE] | 35 ×10⁻⁶ cm/s |
| CC[C@H]1CN2CC[C@H]1C[C@@H]2[C@@H](O)c1ccnc2ccc(OC)cc12 [HYDROQUINIDINE HYDROCHLORIDE] | 37 ×10⁻⁶ cm/s |
| CC(=O)[C@@]1(O)CC[C@H]2[C@@H]3CCC4=CC(=O)CC[C@]4(C)[C@H]3CC[C@@]21C [HYDROXYPROGESTERONE] | 110 ×10⁻⁶ cm/s |
| O=C(/C=C/c1ccccc1)NCCO [IDROCILAMIDE] | 211 ×10⁻⁶ cm/s |
| Oc1ccc(C2=Cc3ccc(O)cc3OC2)cc1 [IDRONOXIL] | 145 ×10⁻⁶ cm/s |
| OCc1c[nH]c2ccccc12 [INDOLE-3-CARBINOL] | 94 ×10⁻⁶ cm/s |
| COc1cc2c(cc1O)C[C@H]1c3c(cc(OC)c(O)c3-2)CCN1C [ISOBOLDINE] | 35 ×10⁻⁶ cm/s |
| COc1ccc2c(c1O)-c1c(OC)c(OC)cc3c1[C@H](C2)N(C)CC3 [ISOCORYDINE] | 74 ×10⁻⁶ cm/s |
| C=C[C@H]1CN2CC[C@@]3(C(=O)Nc4ccccc43)[C@@H]2C[C@@H]1/C(=C\OC)C(=O)OC [ISOCORYNOXEINE] | 37 ×10⁻⁶ cm/s |
| CC1(C)C2=CCCC(C)(C)[C@]23CC[C@H]1C3 [ISOLONGIFOLENE] | 87 ×10⁻⁶ cm/s |
| c1ccc2cnccc2c1 [ISOQUINOLINE] | 157 ×10⁻⁶ cm/s |
| COc1cc(-c2oc3cc(O)cc(O)c3c(=O)c2O)ccc1O [ISORHAMNETIN] | 528 ×10⁻⁶ cm/s |
| COC1=CC(=O)O[C@@H](/C=C/c2ccccc2)C1 [KAWAIN] | 114 ×10⁻⁶ cm/s |
| CC(C)=CCC[C@@H](C)[C@H]1CC[C@@]2(C)C3=C(CC[C@]12C)[C@@]1(C)CC[C@H](O)C(C)(C)[C@@H]1CC3 [LANOSTEROL] | 13 ×10⁻⁶ cm/s |
